Converted amounts (≈) assume the structure as drawn. Like-named read-outs stand apart in the source and are kept apart here.
What was measured:
Format in all cases: cell-based
[1] = tested on: Streptococcus pyogenes 1079; assay: MIC, microtiter broth dilution (NCCLS M100-S14), S. pyogenes 1079 (ermB)
Outline: (§1)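 Broth microdilution MICs in microtiter trays, run and interpreted per NCCLS M100-S14. Compounds were dissolved in DMSO as 40 mg/ml stocks.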

[2] = tested on: Streptococcus pneumoniae 1175; settings: microtiter broth dilution
Outline: as §1

[3] = tested on: Streptococcus pneumoniae 1095; settings: microtiter broth dilution
Outline: as §1

[4] = tested on: Haemophilus influenzae 1218; assay: MIC, microtiter broth dilution (NCCLS M100-S14), H. influenzae 1218 (susceptible)
Outline: as §1

[5] = tested on: Streptococcus pneumoniae 1016; assay: MIC, microtiter broth dilution (NCCLS M100-S14), S. pneumoniae 1016 (susceptible)
Outline: as §1

SMILES	MIC S. pyogenes 1079 ([1]; Streptococcus pyogenes 1079)	MIC S. pneumo. 1175 ([2]; Streptococcus pneumoniae 1175)	MIC S. pneumo. 1095 ([3]; Streptococcus pneumoniae 1095)	MIC H. influenzae 1218 ([4]; Haemophilus influenzae 1218)	MIC S. pneumo. 1016 ([5]; Streptococcus pneumoniae 1016)	MIC S. pyogenes 1079 ([1]; S. pyogenes 1079 (ermB))	MIC S. pneumo. 1175 ([2]; S. pneumoniae 1175 (mefA))	MIC S. pneumo. 1095 ([3]; S. pneumoniae 1095 (ermB))	MIC H. influenzae 1218 ([4]; H. influenzae 1218 (susceptible))	MIC S. pneumo. 1016 ([5]; S. pneumoniae 1016 (susceptible))
CCC1OC(=O)C(C)C(=O)C(C)C(OC2OC(C)CC(N(C)C)C2O)C(C)(OC)CC(C)C(=O)C(C)C2N(C3CN(C(=O)Nc4cccc5ncccc45)C3)C(=O)OC12C (stereo not shown) [Example 2.06, 3-descladinosyl-11,12-dideoxy-6-O-methyl-3-oxo-12,11-(oxycarbonyl-(1-(N-(quinolin-5-yl)-aminocarbonyl)-azetidin-3-yl)-imino)-erythromycin A]	>64.00 µg/mL	0.25 µg/mL (≈ 0.298 µM)	16 µg/mL (≈ 19.1 µM)	0.5 µg/mL (≈ 0.597 µM)	<0.06 µg/mL					
CCC1OC(=O)C(C)C(=O)C(C)C(OC2OC(C)CC(N(C)C)C2O)C(C)(OC)CC(C)C(=O)C(C)C2N(CC3CN(C(=O)c4cccc5ncccc45)C3)C(=O)OC12C (stereo not shown) [4.32]	64 µg/mL (≈ 76.5 µM)	<0.06 µg/mL	0.5 µg/mL (≈ 0.597 µM)	1 µg/mL (≈ 1.19 µM)	<0.06 µg/mL					
CCC1OC(=O)C(C)C(=O)C(C)C(OC2OC(C)CC(N(C)C)C2O)C(C)(OC)CC(C)C(=O)C(C)C2N(C3CN(S(=O)(=O)c4cncc(-n5cccn5)c4)C3)C(=O)OC12C (stereo not shown) [Example 3.80, 3-descladinosyl-11,12-dideoxy-6-O-methyl-3-oxo-12,11-(oxycarbonyl-(1-(5-(1H-pyrazol-1-yl)pyridine-3-sulfonyl)-azetidin-3-yl)-imino)erythromycin A]	4 µg/mL (≈ 4.57 µM)	<0.06 µg/mL	<0.06 µg/mL	>64.00 µg/mL	<0.06 µg/mL					
CCC1OC(=O)C(C)C(=O)C(C)C(OC2OC(C)CC(N(C)C)C2O)C(C)(OC)CC(C)C(=O)C(C)C2N(C3CN(S(=O)(=O)c4ccc(OC(F)F)c5ncccc45)C3)C(=O)OC12C (stereo not shown) [Example 3.113, 3-descladinosyl-11,12-dideoxy-6-O-methyl-3-oxo-12,11-(oxycarbonyl-(1-(8-(difluoromethoxy)quinoline-5-sulfonyl)-azetidin-3-yl)-imino)-erythromycin A]	0.5 µg/mL (≈ 0.541 µM)	<0.063 µg/mL	<0.063 µg/mL	1 µg/mL (≈ 1.08 µM)	<0.063 µg/mL					
CC[C@H]1OC(=O)[C@H](C)C(=O)[C@H](C)[C@@H](O[C@@H]2O[C@H](C)C[C@H](N(C)C)[C@H]2O)[C@](C)(OC)C[C@@H](C)C(=O)[C@H](C)[C@H]2N(CC3(O)CN(C(=O)c4cn5ccccc5n4)C3)C(=O)O[C@]12C.O=CO [7.29]						>64.00 µg/mL	8 µg/mL	0.25 µg/mL	1 µg/mL	<0.06 µg/mL
CCC1OC(=O)C(C)C(=O)C(C)C(OC2OC(C)CC(N(C)C)C2O)C(C)(OC)CC(C)C(=O)C(C)C2N(C3CN(S(=O)(=O)c4ccc(F)c(-c5cnco5)c4)C3)C(=O)OC12C (stereo not shown) [Example 3.88, 3-descladinosyl-11,12-dideoxy-6-O-methyl-3-oxo-12,11-(oxycarbonyl-(1-(4-fluoro-3-(oxazol-5-yl)benzenesulfonyl)-azetidin-3-yl)-imino)-erythromycin A]	8 µg/mL (≈ 8.96 µM)	<0.06 µg/mL	<0.06 µg/mL	2 µg/mL (≈ 2.24 µM)	<0.06 µg/mL					
CC[C@H]1OC(=O)[C@H](C)C(=O)[C@H](C)[C@@H](O[C@@H]2O[C@H](C)C[C@H](N(C)C)[C@H]2O)[C@](C)(OC)C[C@@H](C)C(=O)[C@H](C)[C@H]2N(C3CN([C@H](C)c4ccnc5ncccc45)C3)C(=O)O[C@]12C [Example 1.25, 3-descladinosyl-11,12-dideoxy-6-O-methyl-3-oxo-12,11-(oxycarbonyl-(1-(1R-(1,8-naphthyridin4-yl)-ethyl)-azetidin-3-yl)-imino)-erythromycin A]	1 µg/mL (≈ 1.21 µM)	0.25 µg/mL (≈ 0.303 µM)	<0.06 µg/mL	0.5 µg/mL (≈ 0.607 µM)	<0.06 µg/mL					
CCC1OC(=O)C(C)C(=O)C(C)C(OC2OC(C)CC(N(C)C)C2O)C(C)(OC)CC(C)C(=O)C(C)C2N(C3CN(Cc4ccnc5ccncc45)C3)C(=O)OC12C (stereo not shown) [Example 1.27, 3-descladinosyl-11,12-dideoxy-6-O-methyl-3-oxo-12,11-(oxycarbonyl-(1-((1,6-naphthyridin-4-yl)-methyl)-azetidin-3-yl)-imino)-erythromycin A]	2 µg/mL (≈ 2.47 µM)	0.5 µg/mL (≈ 0.617 µM)	<0.06 µg/mL	0.5 µg/mL (≈ 0.617 µM)	<0.06 µg/mL					
CC[C@H]1OC(=O)[C@H](C)C(=O)[C@H](C)[C@@H](O[C@@H]2O[C@H](C)C[C@H](N(C)C)[C@H]2O)[C@](C)(OC)C[C@@H](C)C(=O)[C@H](C)[C@H]2N(C3CN(C(C)c4ccnc5ccccc45)C3)C(=O)O[C@]12C (stereo partly shown) [Example 1.62, 3-descladinosyl-11,12-dideoxy-6-O-methyl-3-oxo-12,11-(oxycarbonyl-(1-(1-(quinolin-4-yl)-ethyl)-azetidin-3-yl)-imino)-erythromycin A]	2 µg/mL (≈ 2.43 µM)	<0.06 µg/mL	<0.06 µg/mL	0.5 µg/mL (≈ 0.608 µM)	<0.06 µg/mL					
CCC1OC(=O)C(C)C(=O)C(C)C(OC2OC(C)CC(N(C)C)C2O)C(C)(OC)CC(C)C(=O)C(C)C2N(C3CN(Cc4ccnc5ncsc45)C3)C(=O)OC12C (stereo not shown) [Example 1.35, 3-descladinosyl-11,12-dideoxy-6-O-methyl-3-oxo-12,11-(oxycarbonyl-(1-((thiazolo[4,5-b]pyridin-7-yl)-methyl)-azetidin-3-yl)-imino)erythromycin A]	4 µg/mL (≈ 4.9 µM)	0.12 µg/mL (≈ 0.147 µM)	<0.06 µg/mL	1 µg/mL (≈ 1.23 µM)	<0.06 µg/mL					
CCC1OC(=O)C(C)C(=O)C(C)C(OC2OC(C)CC(N(C)C)C2O)C(C)(OC)CC(C)C(=O)C(C)C2N(CC3CN(Cc4c[nH]c5ccccc45)C3)C(=O)OC12C (stereo not shown) [4.11]	64 µg/mL (≈ 78.9 µM)	2 µg/mL (≈ 2.47 µM)	4 µg/mL (≈ 4.93 µM)	1 µg/mL (≈ 1.23 µM)	<0.06 µg/mL					

Source: patent US7462600B2, “Macrolides” (Pfizer Inc, priority 2004, dated 2008)
